{
  "source": "patent US20250121024A1",
  "about": "“COMBINED USE OF IMIQUIMOD AND A CASEIN HYDROLYSATE FOR THE TREATMENT OF CONDYLOMA” (NTD LABS, S.L.U., priority 2021, published 2025)",
  "test_system": "condyloma",
  "assay": "Controlled, observational clinical trials of topical 5% imiquimod, oral casein hydrolysate and their combination in patients suffering from condyloma",
  "type": "in vivo, human",
  "conditions": "for Total resolution rate of condyloma (%): percentage of patients with total resolution",
  "description": "The efficacy of the combination of imiquimod and a casein hydrolysate, according to the characteristics defined in the present invention, for the treatment of patients with condyloma was evaluated. Specifically, it was evaluated whether oral supplementation with the casein hydrolysate in patients treated with topical 5% imiquimod produced an improvement in treatment efficacy (rate of complete resolution of condyloma) and/or reduced recurrences (rate of recurrences) after the treatment.\nA controlled, observational clinical trial was carried out, which included 44 female patients suffering from condyloma, who were divided into two groups: • Imiquimod group (I) (24 patients): treated with 5% imiquimod cream (3 times per week for up to 16 weeks). • Imiquimod+casein hydrolysate group (I+C) (20 patients): treated with 5% imiquimod cream (3 times per week for up to 16 weeks) plus oral casein hydrolysate (6 g once per day, for 6 months).\nLikewise, a controlled, observational clinical trial was carried out with 20 patients suffering from condyloma (Group casein hydrolysate (C)) who were treated only with oral casein hydrolysate for 6 months (6 grams, once per day).\nA commercially available casein hydrolysate (HuPaVir®) and a commercially available 5% imiquimod cream (Aldara® 5% cream) were used in the study.\nIn particular, the evaluation of patients at 4, 8, 12 and 16 weeks after starting treatment is included, as well as after 6 months (for group C some points are not available), wherein the percentage of patients with total resolution of condyloma during treatment (up to 16 weeks) and the recurrence rate 6 months after starting the treatment is reported.",
  "data": [
    {"smiles": "CC(C)Cn1cnc2c(N)nc3ccccc3c21", "note": "[I, 1-(2-methylpropyl)-1H-imidazo[4,5-c]quinoline-4-amine]", "values": [
      {"measurement": "Total resolution rate of condyloma (%)", "setting": "4 weeks after starting treatment", "value": 8.33, "unit": "%"},
      {"measurement": "Recurrence rate (%)", "setting": "6 months after starting the treatment", "value": 14.3, "unit": "%"},
      {"measurement": "Total resolution rate of condyloma (%)", "setting": "8 weeks after starting treatment", "value": 28.57, "unit": "%"},
      {"measurement": "Total resolution rate of condyloma (%)", "setting": "12 weeks after starting treatment", "value": 58.33, "unit": "%"},
      {"measurement": "Total resolution rate of condyloma (%)", "setting": "12 weeks after starting treatment, listed as imiquimod", "value": 58, "unit": "%"},
      {"measurement": "Total resolution rate of condyloma (%)", "setting": "16 weeks after starting treatment", "value": 72.72, "unit": "%"}
    ]}
  ]
}
